Measured values published in patent US20030220266A1, “Method of treating a disease” (priority 2001, published 2003).
Entries after “also recorded” stand apart in the source; their conditions may differ. Values belong to the molecule of their own block, whether it stands above or below them.

Key:
Format in all cases: cell-based, human
[1] = test system: EP2/EP4 receptors in cervical tissue; assay: cAMP production in cervical tissues in response to exogenous PGE2 or forskolin; settings: 300 nM PGE2 or 50 μM forskolin, 5 minutes, after overnight indomethacin
Experimental: Cervical tissues (n=6 squamous carcinoma, n=1 adenocarcinoma and n=5 normal cervix) were sectioned finely, divided equally into three aliquots and incubated overnight in Dulbecco's Modified Eagle Medium (DMEM) (Sigma), containing 10% foetal calf serum, 0.3 mg/ml L-glutamine, 100 IU penicillin and 100 μg streptomycin and 3 μg/ml indomethacin. […] Tissue sections were harvested-by centrifugation at 2000 g. The supernatant was discarded and the tissue homogenised in 0.1 M HCl. cAMP concentration and protein concentrations were determined as mentioned above

[2] = test system: EP1 receptor in COX-1 Tet-Off HeLa cells; assay: Inositol phosphate accumulation (EP1 receptor activity); settings: induced expression of COX-1 and PGE2 stimulation; data not shown
Text: No significant difference in basal cAMP production was detected in uninduced and induced cells (FIG. 6). […] The activity of EP1 receptor was investigated by measuring inositol phosphate accumulation (41).

[3] = test system: COX-2, EP2 and EP4 expression in HeLa cells; assay: Real-time RT-PCR of COX-2, EP2 and EP4 in HeLa cells treated with seminal plasma; settings: HeLa cells co-treated with seminal plasma and inhibitor
Experimental: In sexually active women growth and invasiveness of neoplastic cervical cells may be also under the direct influence of PGE present in seminal plasma. […] The expression of COX-2, EP2 and EP4, was measured by real-time RT-PCR.

[4] = test system: HeLa COX-1 Tet-Off cells; assay: PGE2 secretion into culture medium (ELISA) after COX-1 induction; settings: 5 μg/ml arachidonic acid
Text: The Tet-Off expression system we used was developed by Gossen and co-workers (38) to deliver doxycycline-regulated expression based on the high specificity of the Escherichia coli tet repressor-operator-doxycycline interaction. In the Tet-Off expression system each clonal cell line is used as its own control (cells cultured in the presence of DOX) and the overexpression of the integrated target gene is modulated solely by removing DOX from the culture medium. This eliminates the need for a control clonal cell line transfected with vector alone (as used with constitutive stable expression systems) thereby overcoming the inherent variation that arises from different sites of integration of DNA between different clones. HeLa Tet-Off cells containing the pTet-Off vector stably transfected and constitutively expressing the tetracycline-controlled transactivator tTA (composed of a fusion of the TetR and VP16 activation domain) were purchased from Clontech. The pBS(SK−)/PSHI cDNA containing the full length COX-1 gene (kindly supplied by Dr Stephen Prescott, University of Utah, Salt Lake City, Utah) was used as the template plasmid. The response plasmid pTRE2 (containing the minimal cytomegalovirus promoter containing Tet-operator sequences cloned upstream of the cDNA to be expressed) and the plasmid for antibiotic selection (pTK-hygromycin) for use with the Tet-Off system were purchased from Clontech. The COX-1 gene was excised from the template plasmid and ligated at the Bam H1 site of the pTRE2 vector. The orientation of the insert was verified by dideoxy DNA sequencing using the sequence specific primers: 5′-[…]-3′ (SEQ ID No 8) and 5′-[…]-3′ (SEQ ID No 9) (Clontech). Cells were plated in 12 well dishes in complete medium containing 10 μg/ml G418 per well and were allowed to attach and grow overnight. The pTRE2 vector containing the COX-1 gene (2 μg) was co-transfected with pTK-hygromycin (0.1 μg, which contains the hygromycin gene under control of the minimal thymidine kinase (TK) promoter) into the HeLa Tet-Off cell line at about 80% confluency using pfx-5 (Invitrogen, De Schelp, Netherlands) diluted in Optimem (Gibco). Cells were incubated for 4 hrs at 37° C. in 5% humidified CO2. Thereafter the medium was replaced with fresh complete medium containing no G418. Cells were allowed to grow for 72 hrs. Transfected cells were then seeded together with wild-type cells. Clones were selected against 200 μg/ml hygromycin in the presence of 1 μg/ml DOX. At least 50 hygromycin-resistant clones were picked using cloning cylinders. Clones were allowed to grow under continuous selection with hygromycin in the presence of DOX and then screened for the ability to express COX-1 in the presence and absence of DOX by immunoblot analysis. […]

[5] = test system: bFGF, VEGF, Ang-1 and Ang-2 expression in HeLa COX-1 Tet-Off cells; assay: Western blot of angiogenic factors after COX-1 overexpression; settings: COX-1 overexpression up to 72 hrs
Text: (§1) The Tet-Off expression system we used was developed by Gossen and co-workers (38) to deliver doxycycline-regulated expression based on the high specificity of the Escherichia coli tet repressor-operator-doxycycline interaction. In the Tet-Off expression system each clonal cell line is used as its own control (cells cultured in the presence of DOX) and the overexpression of the integrated target gene is modulated solely by removing DOX from the culture medium. This eliminates the need for a control clonal cell line transfected with vector alone (as used with constitutive stable expression systems) thereby overcoming the inherent variation that arises from different sites of integration of DNA between different clones. HeLa Tet-Off cells containing the pTet-Off vector stably transfected and constitutively expressing the tetracycline-controlled transactivator tTA (composed of a fusion of the TetR and VP16 activation domain) were purchased from Clontech. The pBS(SK−)/PSHI cDNA containing the full length COX-1 gene (kindly supplied by Dr Stephen Prescott, University of Utah, Salt Lake City, Utah) was used as the template plasmid. The response plasmid pTRE2 (containing the minimal cytomegalovirus promoter containing Tet-operator sequences cloned upstream of the cDNA to be expressed) and the plasmid for antibiotic selection (pTK-hygromycin) for use with the Tet-Off system were purchased from Clontech. The COX-1 gene was excised from the template plasmid and ligated at the Bam H1 site of the pTRE2 vector. The orientation of the insert was verified by dideoxy DNA sequencing using the sequence specific primers: 5′-[…]-3′ (SEQ ID No 8) and 5′-[…]-3′ (SEQ ID No 9) (Clontech). Cells were plated in 12 well dishes in complete medium containing 10 μg/ml G418 per well and were allowed to attach and grow overnight. The pTRE2 vector containing the COX-1 gene (2 μg) was co-transfected with pTK-hygromycin (0.1 μg, which contains the hygromycin gene under control of the minimal thymidine kinase (TK) promoter) into the HeLa Tet-Off cell line at about 80% confluency using pfx-5 (Invitrogen, De Schelp, Netherlands) diluted in Optimem (Gibco). Cells were incubated for 4 hrs at 37° C. in 5% humidified CO2. Thereafter the medium was replaced with fresh complete medium containing no G418. Cells were allowed to grow for 72 hrs. Transfected cells were then seeded together with wild-type cells. Clones were selected against 200 μg/ml hygromycin in the presence of 1 μg/ml DOX. At least 50 hygromycin-resistant clones were picked using cloning cylinders. Clones were allowed to grow under continuous selection with hygromycin in the presence of DOX and then screened for the ability to express COX-1 in the presence and absence of DOX by immunoblot analysis. […] Unless otherwise stated, all clones were maintained uninduced in 1 μg/ml DOX, 200 μg/ml hygromycin and 100 μg/ml G418. COX-inhibition studies were conducted by growing cells in medium containing 3 μg/ml indomethacin or 10 μM NS-398.
(§2) Cells were seeded in 5 cm dishes and allowed to attach overnight. The following day, the cells were synchronised by incubating with serum-free medium for 24 hrs. Thereafter, the medium was replaced with fresh complete medium and the cells were grown in the presence or absence of DOX for 24, 48 and 72 hrs respectively. In parallel, cells were co-treated with indomethacin or NS-398. Cells were harvested by lysing in protein lysis buffer (150 mM NaCl, 10 mM Tris-HCl pH 7.4, 1 mM EDTA, 1% Triton X-100, 0.1% SDS). The protein content in the supernatant fraction was determined as described above. The clarified cell lysates (20 μg) were denatured and electrophoresed on 4-20% Tris-Glycine gels (NOVEX, Invitrogen).

[6] = test system: COX-1, COX-2 and PGES expression in HeLa COX-1 Tet-Off cells; assay: Western blot of COX-1, COX-2 and PGES expression after COX-1 induction; settings: for effect on COX-1-mediated up-regulation of COX-2 expression / effect on COX-1-mediated up-regulation of PGES expression / effect on COX-1 overexpression: co-treatment of cells induced for 24, 48 and 72 hrs
Text: as §1, §2

[7] = test system: cAMP-linked PGE2 receptors in HeLa COX-1 Tet-Off cells; assay: PGE2 stimulation and cAMP measurement in HeLa COX-1 Tet-Off cells; settings: cells grown in medium containing indomethacin, COX-1 induced 48 hrs
Experimental: Cells (2×10^5) were plated in 6 well dishes containing 4 ml/well of complete medium containing DOX. Cells were allowed to attach overnight. The following day, the cells were synchronised by incubating with fresh medium containing no foetal bovine serum for 24 hrs. COX-1 Tet-Off cells were induced, by DOX withdrawal from the culture medium for 48 hrs at 37° C. in humidified 5% CO2 in the presence or absence of indomethacin. In parallel, control uninduced cells were supplemented daily with DOX. Thereafter the culture medium was removed and replaced with serum-free medium containing IBMX (Sigma) to a final concentration of 1 mM for 40 mins at 37° C. […] Following stimulation, the medium was removed and the cells lysed in 0.1M HCl. cAMP concentration was quantified by ELISA using a cAMP kit (Biomol, Affiniti, Exeter, UK) as per the manufacturer's protocol and normalised to protein concentration of the lysate. Protein concentrations were determined using protein assay kits (Bio-Rad).

[8] = test system: cAMP-dependent PGE2-receptors in HeLa cells; assay: Real-time quantitative RT-PCR of PGE2 receptors after COX-1 overexpression; settings: cells grown in medium containing indomethacin
Text: The Tet-Off expression system we used was developed by Gossen and co-workers (38) to deliver doxycycline-regulated expression based on the high specificity of the Escherichia coli tet repressor-operator-doxycycline interaction. In the Tet-Off expression system each clonal cell line is used as its own control (cells cultured in the presence of DOX) and the overexpression of the integrated target gene is modulated solely by removing DOX from the culture medium. This eliminates the need for a control clonal cell line transfected with vector alone (as used with constitutive stable expression systems) thereby overcoming the inherent variation that arises from different sites of integration of DNA between different clones. HeLa Tet-Off cells containing the pTet-Off vector stably transfected and constitutively expressing the tetracycline-controlled transactivator tTA (composed of a fusion of the TetR and VP16 activation domain) were purchased from Clontech. The pBS(SK−)/PSHI cDNA containing the full length COX-1 gene (kindly supplied by Dr Stephen Prescott, University of Utah, Salt Lake City, Utah) was used as the template plasmid. […]

[9] = test system: cervical carcinoma tissue and normal cervix; assay: Basal cAMP levels in cervical tissues cultured overnight
Experimental: Determination of Basal CAMP levels in cervical tissues. Initially, basal cAMP levels were measured in cervical tissue (n=7 squamous cell carcinomas and n=5 normal cervix; FIG. 12A). Carcinoma and normal cervical tissues were obtained on the day of surgery/biopsy, sectioned finely and divided equally into three aliquots. The tissue was transported at 4° C. and then incubated in 35 mm tissue culture dishes containing 2 ml of Dulbecco's Modified Eagle Medium (DMEM) (Sigma), containing 10% foetal calf serum, 0.3 mg/ml L-glutamine, 100 IU penicillin and 100 μg streptomycin for 1.5 hours. One aliquot of tissue was snap frozen to determine basal cAMP concentration in the tissue at the time of collection. The other two aliquots were incubated overnight at 37° C. in humidified 5% CO2 in the presence or absence of 3 μg/ml indomethacin [a dual COX enzyme inhibitor (24, 32)]. Subsequently, tissue sections were harvested by centrifugation at 2000 g. The supernatant was discarded and the tissue homogenised in 0.1 M HCl. cAMP concentration was quantified by ELISA using a cAMP kit (Biomol; Affiniti, Exeter, UK) as per the manufacturer's protocol and normalised to protein concentration of the homogenate, Protein concentrations were determined using protein assay kits (Bio-Rad, Hemel Hempstead, UK).

[10] = COX-1 induced 48 hrs with inhibitor (3 μg/ml indomethacin or 10 μM NS-398), induced without inhibitor 272.2±18.8 nM
[11] = COX-1 induced 72 hrs with inhibitor (3 μg/ml indomethacin or 10 μM NS-398), induced without inhibitor 537±22.5 nM

fold induction of cAMP generation in cancer tissue [1]: 55.3±15.84 fold
fold induction of cAMP generation in normal cervix [1]: 9.18±1.59 fold
Structure (SMILES): C=C[C@@]1(C)CC(=O)[C@]2(O)[C@@]3(C)[C@@H](O)CCC(C)(C)[C@@H]3[C@H](O)[C@H](OC(C)=O)[C@@]2(C)O1 [forskolin]

Structure (SMILES): CCCCC[C@H](O)/C=C/[C@H]1[C@H](O)CC(=O)[C@@H]1C/C=C\CCCC(=O)O [PGE2, prostaglandin E2]
inositol phosphate accumulation [2]: No inositol phosphate accumulation above basal

Structure (SMILES): CS(=O)(=O)Nc1ccc([N+](=O)[O-])cc1OC1CCCCC1 [NS-398]
effect on seminal plasma up-regulation of EP2/EP4 receptor expression [3]: partially abolished
PGE2 levels in culture medium [4, 10]: 132 ± 26.2 nM
PGE2 levels in culture medium [4, 11]: 268 ± 17 nM
effect on COX-1 associated up-regulation of Ang-1 [5]: partially reduced; also recorded: partially inhibited
effect on COX-1 associated up-regulation of Ang-2 [5]: partially reduced; also recorded: partially inhibited
effect on COX-1 associated up-regulation of VEGF [5]: partially reduced; also recorded: partially inhibited
effect on COX-1 associated up-regulation of bFGF [5]: partially reduced; also recorded: partially inhibited
effect on COX-1-mediated up-regulation of COX-2 expression [6]: No significant change; also recorded: Partial inhibition
effect on COX-1-mediated up-regulation of PGES expression [6]: Partial inhibition
effect on COX-1 overexpression [6]: no alteration
delay of induction of PGES by COX-1 overexpression ([6]; treatment of HeLa cells with NS-398): 24 h

Structure (SMILES): O=S(=O)(NCCNC/C=C/c1ccc(Br)cc1)c1cccc2cnccc12 [H-89]
effect on seminal plasma up-regulation of EP2/EP4 receptor expression [3]: partially abolished

Structure (SMILES): COc1ccc2c(c1)c(CC(=O)O)c(C)n2C(=O)c1ccc(Cl)cc1 [indomethacin]
effect on seminal plasma up-regulation of EP2/EP4 receptor expression [3]: abolished
effect on elevated cAMP production in COX-1 overexpressing cells in response to PGE2 [7]: abolished
PGE2 levels in culture medium [4, 10]: 62 ± 7 nM
PGE2 levels in culture medium [4, 11]: 76 ± 10.7 nM
effect on up-regulation of the cAMP-dependent PGE2-receptors by COX-1 overexpression [8]: inhibited
effect on COX-1 associated up-regulation of Ang-1 [5]: abolished
effect on COX-1 associated up-regulation of Ang-2 [5]: abolished
effect on COX-1 associated up-regulation of bFGF [5]: abolished
effect on COX-1 associated up-regulation of Ang-1 ([5]; listed as Indomethacin): inhibited
effect on COX-1 associated up-regulation of Ang-2 ([5]; listed as Indomethacin): inhibited
effect on COX-1 associated up-regulation of VEGF ([5]; listed as Indomethacin): inhibited
effect on COX-1 associated up-regulation of bFGF ([5]; listed as Indomethacin): inhibited
effect on COX-1 associated up-regulation of VEGF ([5]; listed as indormethacin): abolished
effect on COX-1-mediated up-regulation of COX-2 expression [6]: inhibited; also recorded: abolished
effect on COX-1-mediated up-regulation of PGES expression [6]: inhibited; also recorded: abolished
effect on COX-1 overexpression [6]: no alteration
cAMP concentration in carcinoma tissue ([9]; overnight culture in presence of indomethacin, without indomethacin 64.2±5.1): 2.59±0.64 pmol cAMP/mg protein
cAMP concentration in normal cervical tissue ([9]; overnight incubation in presence of indomethacin, without indomethacin 11.96±1.35): 4.0±0.7 pmol cAMP/mg protein
